Results on seven compounds are retold here after ChEMBL document CHEMBL1143598, “1-Methyl-3H-pyrazolo[1,2-a]benzo[1,2,3,4]tetrazin-3-ones. Design, synthesis, and biological activity of new antitumor agents” (2005).

A short description of test [1]: Concentration required to inhibit total cell growth of human tumor cell lines (54 cells giving positive results out of 55 cells); Range = 5.72-4.10. Type of test: functional. The conditions noted are these: read-out: pTGI50 (converted).
Test [2] in a line: Concentration required to inhibit cell growth of human tumor cell lines (55 cells giving positive results out of 55 cells); Range = 6.28-4.59. It counts as functional.
Test [3] in a line: Concentration required to inhibit cell death of human tumor cell lines (50 cells giving positive results out of 55 cells); Range = 5.27-4.1. It counts as functional. To be noted: read-out: pLC50 (the source's name) (converted).
A short description of test [4]: Concentration required to inhibit cell death of human tumor cell lines (40 cells giving positive results out of 55 cells); Range = 4.26-4.06. It counts as functional. The conditions noted are these: read-out: pLC50 (the source's name) (converted).
Test [5] can be described thus: Concentration required to inhibit total cell growth of human tumor cell lines (50 cells giving positive results out of 55 cells); Range = 5.23-4.07. Type of test: functional. To be noted: read-out: pTGI50 (converted).
Test [6] can be described thus: Concentration required to inhibit cell growth of human tumor cell lines (53 cells giving positive results out of 55 cells); Range is 5.68-4.53. It counts as functional.
The nature of test [7]: Concentration required to inhibit cell death of human tumor cell lines (48 cells giving positive results out of 55 cells); Range = 5.19-4.05. The conditions noted are these: read-out: pLC50 (the source's name) (converted).
Test [8] can be described thus: Concentration required to inhibit total cell growth of human tumor cell lines (50 cells giving positive results out of 55 cells); Range = 5.45-4.00. Type of test: functional. To be noted: read-out: pTGI50 (converted).
Test [9] in a line: Concentration required to inhibit cell growth of human tumor cell lines (54 cells giving positive results out of 55 cells); Range = 5.75-4.50. It counts as functional.
Test [10] is described as follows: Concentration required to inhibit total cell growth of human tumor cell lines (51 cells giving positive results out of 54 cells); Range = 6.14-4.29. To be noted: read-out: pTGI50 (converted). It counts as functional.
Test [11] in a line: Concentration required to inhibit cell growth of human tumor cell lines (54 cells giving positive results out of 54 cells); Range = 6.76-4.46. It counts as functional.
Test [12] is described as follows: Concentration required to inhibit cell death of human tumor cell lines (46 cells giving positive results out of 54 cells); Range = 5.36-4.01. Type of test: functional. The conditions noted are these: read-out: pLC50 (the source's name) (converted).
Test [13] can be described thus: Concentration required to inhibit total cell growth of human tumor cell lines (52 cells giving positive results out of 54 cells); Range = 5.53-4.02. Type of test: functional. The conditions noted are these: read-out: pTGI50 (converted).
A short description of test [14]: Concentration required to inhibit cell death of human tumor cell lines (45 cells giving positive results out of 54 cells); Range = 5.25-4.05. It counts as functional. The conditions noted are these: read-out: pLC50 (the source's name) (converted).
Test [15] in a line: Concentration required to inhibit cell growth of human tumor cell lines (53 cells giving positive results out of 54 cells); Range = 6.05-4.50. Type of test: functional.
A short description of test [16]: Concentration required to inhibit total cell growth of human tumor cell lines (52 cells giving positive results out of 53 cells; Range = 5.53-4.07. To be noted: read-out: pTGI50 (converted). Type of test: functional.
Test [17] can be described thus: Concentration required to inhibit cell death of human tumor cell lines (49 cells giving positive results out of 53 cells); Range = 5.25-4.11. It counts as functional. To be noted: read-out: pLC50 (the source's name) (converted).
Test [18] can be described thus: Concentration required to inhibit cell growth of human tumor cell lines (53 cells giving positive results out of 53 cells); Range = 5.85-4.50. It counts as functional.
The nature of test [19]: Concentration required to inhibit cell growth of human tumor cell lines (51 cells giving positive results out of 53 cells); Range = 5.75-4.67. Type of test: functional.
Test [20] is described as follows: Concentration required to inhibit cell death of human tumor cell lines (50 cells giving positive results out of 53 cells); Range = 5.21-4.01. It counts as functional. The conditions noted are these: read-out: pLC50 (the source's name) (converted).
The nature of test [21]: Concentration required to inhibit total cell growth of human tumor cell lines (52 cells giving positive results out of 53 cell lines); Range = 5.47-4.34. It counts as functional. To be noted: read-out: pTGI50 (converted).

SMILES strings stand for the structures.

Regarding `Cc1cc(=O)n2nnc3cc(Cl)ccc3n12`, the GI50 in test [1] was 1910 nM; in test [2] it was 525 nM. The CC50 in test [3] is 5.37 µM.

For the compound `Cc1cc(=O)n2nnc3ccccc3n12`, in [4], the CC50 is 55 µM. Further, the GI50 in [5] is 5.89 µM; in test [6], 2090 nM.

In the case of `COc1ccc2c(c1)nnn1c(=O)cc(C)n21`, the CC50 in test [7] is 6.46 µM. The GI50 in [8] is 3.55 µM; in test [9] it was 1780 nM.

Consider `Cc1ccc2nnn3c(=O)cc(C)n3c2c1`, for which the GI50 was 724 nM in test [10] and 174 nM in test [11]. Also, the CC50 in [12] was 4.37 µM.

With `Cc1cc(=O)n2nnc3ccc(Cl)cc3n12`, the results for the GI50 in test [13] and in [15] were 2950 nM and 891 nM, respectively. For the same compound, in [14], the CC50 is 5.62 µM.

Consider `Cc1ccc2c(c1)nnn1c(=O)cc(C)n21`, for which the GI50 in test [16] was 2950 nM; in [18] it was 1410 nM. Moreover, in [17], the CC50 is 5.62 µM.

As for `Cc1cc(=O)n2nnc3cc(F)ccc3n12`, the results for the GI50 in [19] and in test [21] were 1780 nM and 3.39 µM, respectively. Moreover, in test [20], the CC50 was 6.17 µM.
